According to patent US20210345603A1, “COMPOSITION INTENDED FOR INCREASING THE VELOCITY OF SPERMS COMPRISING SEROTONIN AS ACTIVE COMPOUND” (YILDIZ TEKNÍK ÜNIÌVERSÍTESÌ, priority 2018, published 2021):

Key:
sperm cells = experiment: Sperm motility test in Makler counting chamber after incubation in sperm wash medium; format: cell-based, human; set-up: unit not given here
Procedure: The first step is to collect the sperm cells and the semen of the infertile men within the range of 28-45 is used. Specimens are obtained after a sexual abstinence for 3-4 days. All semen specimens are collected in sterile containers and left to liquefy at 37° C. for 30 minutes. 10 μl of sample is taken into Makler® counting chamber and the concentrations, motilities, viabilities, morphologies of the sperms and the leukocyte existence are evaluated. According to the motility results, the semen specimen is prepared by being washed with HTF based sperm wash solution containing Hepes buffer by using concentration and gradient methods. Washed and prepared sperms are collected in the sperm wash medium in which certain amounts of (25, 50, 100 and 200 μM) 5-HT was added, and incubated at 25′C in certain periods of time (30, 60, 90 and 120 minutes).
Sperm motility tests are performed with the sperms kept in a serotonin medium, by the measurements in the Makler® counting chamber with 30, 60, 90 and 120 min. intervals. Samples with a sperm concentration of 2×10^6 and 50×10^5 per ml max. are included in the analyses. As to the interactions of serotonin and the excipients, washed sperm cells are taken into the sperm wash mediums containing 5-HT and vitamin D, serotonin, selenium, zinc mineral, vitamin C, vitamin E, vitamin B9, vitamin B12 in certain amounts respectively, and are incubated for certain time intervals in an incubator. The dosage of the compounds is determined by examining the effect of the same on sperm motility, both individually and in combination.

fruit flies = fruit flies incapable of mating, after being fed with serotonin; cited from earlier work

NCCc1c[nH]c2ccc(O)cc12 [serotonin]
Change in Average Motility (sperm cells; 25 μM serotonin, 30 min incubation at 25° C.): 82.76 | Change in Average Motility (sperm cells; 25 μM serotonin, 60 min incubation at 25° C.): 86.28 | Change in Average Motility (sperm cells; 25 μM serotonin, 90 min incubation at 25° C.): 81.48 | Change in Average Motility (sperm cells; 25 μM serotonin, 120 min incubation at 25° C.): 81.41 | Change in Average Motility (sperm cells; 50 μM serotonin, 30 min incubation at 25° C.): 80.56 | Change in Average Motility (sperm cells; 50 μM serotonin, 60 min incubation at 25° C.): 81.66 | Change in Average Motility (sperm cells; 50 μM serotonin, 90 min incubation at 25° C.): 86.08 | Change in Average Motility (sperm cells; 50 μM serotonin, 120 min incubation at 25° C.): 80.45 | Change in Average Motility (sperm cells; 100 μM serotonin, 30 min incubation at 25° C.): 83.53 | Change in Average Motility (sperm cells; 100 μM serotonin, 60 min incubation at 25° C.): 80.16 | Change in Average Motility (sperm cells; 100 μM serotonin, 90 min incubation at 25° C.): 83.86 | Change in Average Motility (sperm cells; 100 μM serotonin, 120 min incubation at 25° C.): 80.4 | Change in Average Motility (sperm cells; 200 μM serotonin, 30 min incubation at 25° C.): 82.06 | Change in Average Motility (sperm cells; 200 μM serotonin, 60 min incubation at 25° C.): 86.46 | Change in Average Motility (sperm cells; 200 μM serotonin, 90 min incubation at 25° C.): 86.55 | Change in Average Motility (sperm cells; 200 μM serotonin, 120 min incubation at 25° C.): 82.55 | Mating rate (fruit flies): 25%
